Legend:
[1] = target: T1, c-Prune1 (354-453) (Homo sapiens, UniProt Q86TP1); assay: NMR and microscale thermophoresis interaction study; assay type: binding; settings: KD not given
T1 construct: 20 µM of c-Prune1 (354-453) protein was labelled with 60 µM of NT-647-NHS reactive dye; made in house
T1 sequence (Q86TP1 354-453): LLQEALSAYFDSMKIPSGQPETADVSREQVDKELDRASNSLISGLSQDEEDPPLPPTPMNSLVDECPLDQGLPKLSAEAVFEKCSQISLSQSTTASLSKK
Description: For interaction studies, samples (total volume, 600 µL) were prepared in 5-mm NMR tubes, using 1mM of AA7.5 and 10µM of C-prune1 (AA7.5/C-prune1 molar ratio of 100:1) in H2O/^2H2O mixture at pH 6.8. STD spectra were acquired with 512 scans with onresonance irradiation at -0.5 ppm for selective saturation of protein resonances and off-resonance irradiation at 30 ppm for reference spectra. A train of 40 Gaussian-shaped pulses of 50 milliseconds with 1-millisecond delay between pulses were used, for a total saturation time of 2 seconds. […]
1H and STD spectra of AA7.5 alone were acquired as reference. […] Relative STD values were calculated by dividing STD signal intensities by the intensities of the corresponding signals in a 1D 1H NMR reference spectrum of the same sample recorded with 512 scans and similarly processed. […] To determine the per residue chemical shift perturbation upon binding and account for differences in spectral widths between ^15N and ^1H resonances, weighted average chemical shift differences, ΔδHN , were calculated for the amide ^15N and ^1H resonances, using equation: ΔδHN = ([((ΔHN))^2+((0.17×Δ^15N))^2])^((1)/(2)) [formula] where ΔH and ΔN are the differences between free and bound chemical shifts. […]

[2] = test system: CCL2; assay: ELISA of CCL2 in sera of implanted mice; assay type: in vivo, FVB WT mice; settings: 6 mg/kg/day intraperitoneally for seven days; n.5 per group
Description: ELISA assay ([…]) was performed by following the manufacturer instruction, to measure the levels of CCL2 cytokine in the sera from immunocompetent syngeneic mice orthotopically implanted with MATH1-Prune1/ TP53-/- cells and treated intraperitoneally for seven days with LEO-AA7.5(S)T (n.5) at 6 mg/kg/day, or with water (n.5) as the vehicle control group.

[3] = test system: CD4+/ CD8+ T cells; assay: Tconv to Treg conversion of T cells grown in conditioned media (immunofluorescence CD4/FOXP3); assay type: cell-based, FVB mice
Description: The isolation of untouched mouse CD4+/ CD8+ T cells from single-cell suspensions from spleen of n.2 naive FVB mice were performed by using Pan T Cell Isolation Kit II, mouse (130-095-130, Miltenyi biotec), according to the manufacturer instruction. Once isolated, T cells were grown for 48 hours in the conditioned media previously collected for 24 hours from pooled vehicle- or 10 µM LEO-AA7.5(S)T-treated MATH1-Prune1/TP53-/- cells.
T cells grown for 48 hours in conditioned media collected from vehicle- or LEO-AA7.5(S)T-treated MATH1-Prune1/TP53-/- cells were fixed in 4% paraformaldehyde in phosphate-buffered saline (PBS) for 30 min, washed three times with PBS, and permeabilized for 15 min with 0.1% Triton X-100 (215680010; Acros Organics) diluted in PBS. The cells were then blocked with 3% bovine serum albumin (A9418; Sigma) in PBS for 1 h at room temperature. The samples were incubated with the appropriate primary antibodies overnight at 4 °C: anti-FOXP3 (1:2000; ab54501; Abcam); anti-CD4 (1:100; sc-19641, SantaCruz). After washing with PBS, the samples were incubated with the secondary antibody at room temperature for 1 h, as anti-mouse Alexa Fluor 488 (1:200; ab 150113; Abcam) or anti-rabbit Alexa Fluor 546 (1:200; Abcam). DNA was stained with DAPI (1:1000; #62254, Thermo Fisher). The slides were washed and mounted with cover slips with 50% glycerol (G5150; Sigma-Aldrich). […]

## COc1ccc(CNc2ncnc(N3CCC[C@H](CO)C3)n2)cc1.Cl [LEO-AA7.5(S)T, (S)-(1-(4-((4-methoxybenzyl)amino)-1,3,5-triazin-2-yl)piperidin-3-yl)methanol HCl salt]
[1]
  binding to Prune1 protein at its Carboxyl-terminus domain: binds Prune1 protein
[2]
  sera circulating CCL2: decreased levels
[3]; T cells 48 hours in conditioned media of cells treated with 10 µM for 24 hours, vs vehicle conditioned media
  percentage of Tregs (CD4+FOXP3+) among T cells: decrease
[3]; ex vivo, 10 µM vs 100 µM AA7.1
  inhibition of the conversion from Tconv to Treg cells, compared with 100 µM AA7.1: comparable
